# Source: patent publication US6717008B2, “Derivatives of C2-substituted indan-1-ol compounds, methods for their preparation and use” (Aventis Pharma Deutschland GmbH, priority 2001, dated 2004)
# Key:
# female NMRI mice = assay: Anorectic action: cumulative evaporated milk consumption after 24 h feed removal; assay type: in vivo; conditions: dose 10 mg/kg, i.p. or po (route not specified), compared with control animals
# Procedure: The anorectic action was tested on female NMRI mice. After removal of feed for 24 hours, the preparation to be tested was administered intraperitoneally (i.p.) or by gavage (po). The animals were housed singly and, with free access to drinking water, they were offered evaporated milk 30 minutes after administration of the preparation. The consumption of evaporated milk was determined and the general behavior of the animals was monitored every half an hour for 7 hours. The measured milk consumption was compared to that of vehicle-treated control animals.
smiles,measurement,setting,value
"CC(=O)OC1c2ccc(Cl)cc2CC1S(C)(=O)=O (centres unmarked) [Example 1, 1-Acetoxy-5-chloro-2-methylsulfonylindane]",melting point,,136 °C
same,Reduction in cumulative milk consumption as % of the control,female NMRI mice,81 % of the control
